ChEMBL document CHEMBL4431344, “Synthesis of potent and broad genotypically active NS5B HCV non-nucleoside inhibitors binding to the thumb domain allosteric site 2 of the viral polymerase” (Bioorg Med Chem Lett, 2016)

Biological target: Genome polyprotein (Hepatitis C virus genotype 1b (isolate Con1) (HCV), UniProt Q9WMX2)
Test: Inhibition of HCV genotype 1b Con1 NS5B RNA dependent RNA polymerase

Sequence of Genome polyprotein (Hepatitis C virus genotype 1b (isolate Con1) (HCV), UniProt Q9WMX2) (Q9WMX2 2420-3010 limits assumed): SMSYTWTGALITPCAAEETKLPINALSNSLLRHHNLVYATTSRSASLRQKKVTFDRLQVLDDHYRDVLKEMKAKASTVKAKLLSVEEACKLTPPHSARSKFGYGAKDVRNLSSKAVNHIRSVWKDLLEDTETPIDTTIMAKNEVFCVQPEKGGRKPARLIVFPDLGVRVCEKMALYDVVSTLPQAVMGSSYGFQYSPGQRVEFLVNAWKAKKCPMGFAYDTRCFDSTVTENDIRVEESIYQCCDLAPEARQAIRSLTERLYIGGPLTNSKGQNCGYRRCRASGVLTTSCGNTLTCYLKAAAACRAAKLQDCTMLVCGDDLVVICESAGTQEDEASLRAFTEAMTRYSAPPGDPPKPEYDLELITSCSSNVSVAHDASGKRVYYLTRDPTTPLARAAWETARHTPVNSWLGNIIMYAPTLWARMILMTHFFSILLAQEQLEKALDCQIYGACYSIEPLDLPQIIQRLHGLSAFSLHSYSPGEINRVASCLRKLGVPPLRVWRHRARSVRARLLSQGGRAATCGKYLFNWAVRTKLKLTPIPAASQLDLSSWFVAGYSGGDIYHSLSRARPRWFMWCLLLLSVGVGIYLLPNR

Question: Which IC50 does the source give for `COP(=O)(Nc1cc(-c2ccc(-c3cc4nc(C)cc(N)n4n3)cc2)sc1C(=O)O)c1ccc(C)cc1C` (stereo not given) here?
Answer: Its IC50 is 0.009 µM.

System: Hepatitis C virus
Test: Antiviral activity against HCV assessed as inhibition of viral RNA replication in replicon cells by luciferase reporter gene assay
Assay type: functional, Hepacivirus hominis

Question: `Cc1ccc(S(=O)(=O)Nc2cc(-c3ccccc3)sc2C(=O)O)c(C)c1` was tested. Which EC50 did it give?
Answer: Its EC50 is 5 µM.

Question: How did the EC50 turn out when `COP(=O)(Nc1cc(-c2ccc(C#CC3CC3)cc2)sc1C(=O)O)c1ccc(C)cc1C` (stereo not given) was run?
Answer: The EC50 was 2.47 µM.

Question: Which EC50 does the source give for `CCOP(=O)(Nc1cc(-c2ccc(Cl)cc2)sc1C(=O)O)C1CC=C(C)CC1` (stereo not given) here?
Answer: The EC50 was greater than 8.3 µM.

Question: How did the EC50 turn out when `Cc1ccc(P(=O)(Nc2cc(-c3ccc(Cl)cc3)sc2C(=O)O)OCC2CCOCC2)c(C)c1` (stereo not given) was run?
Answer: Its EC50 is 0.32 µM.

Question: How did the EC50 turn out when `COP(=O)(Nc1cc(-c2ccc(-c3cc4ncccc4o3)cc2)sc1C(=O)O)c1ccc(C)cc1C` (stereo not given) was run?
Answer: Its EC50 is 0.0007 µM.

Question: How did the EC50 turn out when `COP(=O)(Nc1cc(-c2ccc(-c3cc4nc(C)ccn4n3)cc2)sc1C(=O)O)c1ccc(C)cc1C` (stereo not given) was run?
Answer: Its EC50 is 0.0007 µM.

Question: Which EC50 does the source give for `COP(=O)(Nc1cc(-c2ccc(-c3cc4ccccc4s3)cc2)sc1C(=O)O)c1ccc(C)cc1C` (stereo not given) here?
Answer: The EC50 was 0.0232 µM.

Question: For `CCOP(=O)(Nc1cc(-c2ccc(Cl)cc2)sc1C(=O)O)c1ccc(Cl)cc1C` (stereo not given), which EC50 is on record?
Answer: The EC50 was 2.92 µM.

Question: `COP(=O)(Nc1cc(-c2ccc(F)cc2)sc1C(=O)O)c1ccc(C)cc1C` (stereo not given) was tested. Which EC50 did it give?
Answer: Its EC50 is 2.14 µM.

Question: `Cc1ccc(P(=O)(Nc2cc(-c3ccc(Cl)cc3)sc2C(=O)O)OCc2cc3ccccc3o2)c(C)c1` (stereo not given) was tested. Which EC50 did it give?
Answer: Its EC50 is 2.7 µM.

Question: For `CCCOP(=O)(Nc1cc(-c2ccc(Cl)cc2)sc1C(=O)O)c1ccc(C)cc1C` (stereo not given), which EC50 is on record?
Answer: Its EC50 is 3.53 µM.

Question: With `COP(=O)(Nc1cc(-c2ccc(Cl)cc2)sc1C(=O)O)c1ccc(C)cc1C` (stereo not given) as the compound, how does the EC50 read?
Answer: Its EC50 is 0.66 µM.

Question: How did the EC50 turn out when `Cc1ccc(P(=O)(Nc2cc(-c3ccc(Cl)cc3)sc2C(=O)O)OCC(C)C)c(C)c1` (stereo not given) was run?
Answer: Its EC50 is 3.04 µM.

Question: Which EC50 does the source give for `CCOP(=O)(Nc1cc(-c2ccccc2)sc1C(=O)O)C1CCC(C)CC1` (stereo not given) here?
Answer: Its EC50 is greater than 8.3 µM.

Question: Which EC50 does the source give for `COP(=O)(Nc1cc(-c2ccc(-c3cc4nc(C)cc(N)n4n3)cc2)sc1C(=O)O)c1ccc(C)cc1C` (stereo not given) here?
Answer: The EC50 was 0.0005 µM.

Question: `COCCOP(=O)(Nc1cc(-c2ccc(Cl)cc2)sc1C(=O)O)c1ccc(C)cc1C` (stereo not given) was tested. Which EC50 did it give?
Answer: The EC50 was 2.66 µM.

Question: With `Cc1ccc(P(=O)(Nc2cc(-c3ccc(Cl)cc3)sc2C(=O)O)OCCc2ccc(F)cc2)c(C)c1` (stereo not given) as the compound, how does the EC50 read?
Answer: The EC50 was 2.41 µM.

Question: Which EC50 does the source give for `COP(=O)(c1ccc(C)cc1C)N(C)c1cc(-c2ccc(Cl)cc2)sc1C(=O)O` (stereo not given) here?
Answer: Its EC50 is 2.82 µM.

Question: For `CCCCOP(=O)(Nc1cc(-c2ccc(Cl)cc2)sc1C(=O)O)c1ccc(C)cc1C` (stereo not given), which EC50 is on record?
Answer: Its EC50 is 2.71 µM.

Question: How did the EC50 turn out when `Cc1ccc(P(=O)(Nc2cc(-c3ccc(Cl)cc3)sc2C(=O)O)OC(C)C)c(C)c1` (stereo not given) was run?
Answer: Its EC50 is 2.28 µM.

Question: For `C=CP(=O)(Nc1cc(-c2ccc(Cl)cc2)sc1C(=O)O)OCC` (stereo not given), which EC50 is on record?
Answer: Its EC50 is greater than 8.3 µM.

Question: With `COP(=O)(Nc1cc(-c2ccc(Cl)cc2)sc1C(=O)O)c1ccc(Cl)cc1C` (stereo not given) as the compound, how does the EC50 read?
Answer: Its EC50 is 1.55 µM.

Question: For `CC(C)N(c1cc(-c2ccccc2)sc1C(=O)O)C(=O)[C@H]1CC[C@H](C)CC1`, which EC50 is on record?
Answer: Its EC50 is 0.369 to 0.6 µM.

Question: For `CCOP(=O)(Nc1cc(-c2ccc(Cl)cc2)sc1C(=O)O)C1CCC(C)CC1` (stereo not given), which EC50 is on record?
Answer: The EC50 was greater than 8.3 µM.

Question: For `COP(=O)(c1ccc(C)cc1C)N(c1cc(-c2ccc(F)cc2)sc1C(=O)O)C(C)C` (stereo not given), which EC50 is on record?
Answer: The EC50 was 4.19 µM.

Question: With `Cc1ccc(P(=O)(Nc2cc(-c3ccc(Cl)cc3)sc2C(=O)O)OCCC(C)C)c(C)c1` (stereo not given) as the compound, how does the EC50 read?
Answer: The EC50 was 3.56 µM.

Question: `COP(=O)(Nc1cc(-c2ccc(C#Cc3ccsc3)cc2)sc1C(=O)O)c1ccc(C)cc1C` (stereo not given) was tested. Which EC50 did it give?
Answer: The EC50 was 0.0048 µM.

Question: For `COP(=O)(Nc1cc(-c2ccc(Cl)cc2)sc1C(=O)O)c1ccc(Cl)cc1F` (stereo not given), which EC50 is on record?
Answer: The EC50 was 3.35 µM.

Question: Which EC50 does the source give for `COP(=O)(Nc1cc(-c2ccc(-c3cc4ccccc4o3)cc2)sc1C(=O)O)c1ccc(C)cc1C` (stereo not given) here?
Answer: The EC50 was 0.0017 µM.

Biological target: Genome polyprotein (Hepatitis C virus genotype 1b (strain HC-J4) (HCV), UniProt O92972)
Test: Inhibition of HCV genotype 1b J4 NS5B RNA dependent RNA polymerase
Parameters: species or system Hepatitis C virus isolate HC-J4

Sequence of Genome polyprotein (Hepatitis C virus genotype 1b (strain HC-J4) (HCV), UniProt O92972) (O92972 2420-3010 limits assumed): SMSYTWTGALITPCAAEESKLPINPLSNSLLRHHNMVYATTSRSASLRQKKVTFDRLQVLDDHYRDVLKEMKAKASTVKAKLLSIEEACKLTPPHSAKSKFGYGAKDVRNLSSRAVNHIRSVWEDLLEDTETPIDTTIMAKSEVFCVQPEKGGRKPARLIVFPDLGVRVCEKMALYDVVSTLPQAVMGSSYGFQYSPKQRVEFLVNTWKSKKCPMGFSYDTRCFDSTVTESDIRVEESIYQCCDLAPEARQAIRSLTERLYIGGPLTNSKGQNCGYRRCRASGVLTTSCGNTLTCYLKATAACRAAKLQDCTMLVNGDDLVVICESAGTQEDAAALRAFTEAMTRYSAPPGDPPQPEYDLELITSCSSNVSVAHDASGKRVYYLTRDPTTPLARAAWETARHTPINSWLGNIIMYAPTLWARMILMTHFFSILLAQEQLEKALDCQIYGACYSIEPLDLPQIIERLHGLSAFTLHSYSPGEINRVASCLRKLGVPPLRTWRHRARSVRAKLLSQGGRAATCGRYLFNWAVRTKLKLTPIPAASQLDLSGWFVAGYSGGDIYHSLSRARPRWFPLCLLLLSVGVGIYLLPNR

Question: For `COP(=O)(Nc1cc(-c2ccc(C#CC3CC3)cc2)sc1C(=O)O)c1ccc(C)cc1C` (stereo not given), which IC50 is on record?
Answer: Its IC50 is 0.0458 µM.

Question: How did the IC50 turn out when `CCOP(=O)(Nc1cc(-c2ccc(Cl)cc2)sc1C(=O)O)C1CC=C(C)CC1` (stereo not given) was run?
Answer: Its IC50 is 1.13 µM.

Question: With `Cc1ccc(P(=O)(Nc2cc(-c3ccc(Cl)cc3)sc2C(=O)O)OCC2CCOCC2)c(C)c1` (stereo not given) as the compound, how does the IC50 read?
Answer: Its IC50 is 0.154 µM.

Question: `COP(=O)(Nc1cc(-c2ccc(-c3cc4ncccc4o3)cc2)sc1C(=O)O)c1ccc(C)cc1C` (stereo not given) was tested. Which IC50 did it give?
Answer: The IC50 was 0.0054 µM.

Question: With `COP(=O)(Nc1cc(-c2ccc(-c3cc4nc(C)ccn4n3)cc2)sc1C(=O)O)c1ccc(C)cc1C` (stereo not given) as the compound, how does the IC50 read?
Answer: The IC50 was 0.0078 µM.

Question: `COP(=O)(Nc1cc(-c2ccc(-c3cc4ccccc4s3)cc2)sc1C(=O)O)c1ccc(C)cc1C` (stereo not given) was tested. Which IC50 did it give?
Answer: Its IC50 is 0.0163 µM.

Question: Which IC50 does the source give for `CCOP(=O)(Nc1cc(-c2ccc(Cl)cc2)sc1C(=O)O)c1ccc(Cl)cc1C` (stereo not given) here?
Answer: Its IC50 is 0.081 µM.

Question: Which IC50 does the source give for `COP(=O)(Nc1cc(-c2ccc(F)cc2)sc1C(=O)O)c1ccc(C)cc1C` (stereo not given) here?
Answer: Its IC50 is 0.118 µM.

Question: For `Cc1ccc(P(=O)(Nc2cc(-c3ccc(Cl)cc3)sc2C(=O)O)OCc2cc3ccccc3o2)c(C)c1` (stereo not given), which IC50 is on record?
Answer: Its IC50 is 0.425 µM.

Question: For `CCCOP(=O)(Nc1cc(-c2ccc(Cl)cc2)sc1C(=O)O)c1ccc(C)cc1C` (stereo not given), which IC50 is on record?
Answer: Its IC50 is 0.147 µM.

Question: Which IC50 does the source give for `COP(=O)(Nc1cc(-c2ccc(Cl)cc2)sc1C(=O)O)c1ccc(C)cc1C` (stereo not given) here?
Answer: The IC50 was 0.021 µM.

Question: Which IC50 does the source give for `Cc1ccc(P(=O)(Nc2cc(-c3ccc(Cl)cc3)sc2C(=O)O)OCC(C)C)c(C)c1` (stereo not given) here?
Answer: Its IC50 is 0.223 µM.

Question: With `CCOP(=O)(Nc1cc(-c2ccccc2)sc1C(=O)O)C1CCC(C)CC1` (stereo not given) as the compound, how does the IC50 read?
Answer: The IC50 was greater than 10 µM.

Question: With `COP(=O)(Nc1cc(-c2ccc(-c3cc4nc(C)cc(N)n4n3)cc2)sc1C(=O)O)c1ccc(C)cc1C` (stereo not given) as the compound, how does the IC50 read?
Answer: Its IC50 is 0.0051 µM.

Question: With `COCCOP(=O)(Nc1cc(-c2ccc(Cl)cc2)sc1C(=O)O)c1ccc(C)cc1C` (stereo not given) as the compound, how does the IC50 read?
Answer: The IC50 was 0.135 µM.

Question: With `Cc1ccc(P(=O)(Nc2cc(-c3ccc(Cl)cc3)sc2C(=O)O)OCCc2ccc(F)cc2)c(C)c1` (stereo not given) as the compound, how does the IC50 read?
Answer: Its IC50 is 0.314 µM.

Question: For `COP(=O)(c1ccc(C)cc1C)N(C)c1cc(-c2ccc(Cl)cc2)sc1C(=O)O` (stereo not given), which IC50 is on record?
Answer: Its IC50 is 0.059 µM.

Question: `CCCCOP(=O)(Nc1cc(-c2ccc(Cl)cc2)sc1C(=O)O)c1ccc(C)cc1C` (stereo not given) was tested. Which IC50 did it give?
Answer: Its IC50 is 0.17 µM.

Question: For `Cc1ccc(P(=O)(Nc2cc(-c3ccc(Cl)cc3)sc2C(=O)O)OC(C)C)c(C)c1` (stereo not given), which IC50 is on record?
Answer: The IC50 was 0.189 µM.

Question: For `C=CP(=O)(Nc1cc(-c2ccc(Cl)cc2)sc1C(=O)O)OCC` (stereo not given), which IC50 is on record?
Answer: The IC50 was greater than 10000 µM.

Question: With `COP(=O)(Nc1cc(-c2ccc(Cl)cc2)sc1C(=O)O)c1ccc(Cl)cc1C` (stereo not given) as the compound, how does the IC50 read?
Answer: The IC50 was 0.026 µM.

Question: `CC(C)N(c1cc(-c2ccccc2)sc1C(=O)O)C(=O)[C@H]1CC[C@H](C)CC1` was tested. Which IC50 did it give?
Answer: Its IC50 is 0.035 µM.

Question: With `CCOP(=O)(Nc1cc(-c2ccc(Cl)cc2)sc1C(=O)O)C1CCC(C)CC1` (stereo not given) as the compound, how does the IC50 read?
Answer: The IC50 was 3.74 µM.

Question: Which IC50 does the source give for `COP(=O)(c1ccc(C)cc1C)N(c1cc(-c2ccc(F)cc2)sc1C(=O)O)C(C)C` (stereo not given) here?
Answer: Its IC50 is 0.517 µM.

Question: Which IC50 does the source give for `Cc1ccc(P(=O)(Nc2cc(-c3ccc(Cl)cc3)sc2C(=O)O)OCCC(C)C)c(C)c1` (stereo not given) here?
Answer: The IC50 was 0.298 µM.

Question: How did the IC50 turn out when `COP(=O)(Nc1cc(-c2ccc(C#Cc3ccsc3)cc2)sc1C(=O)O)c1ccc(C)cc1C` (stereo not given) was run?
Answer: The IC50 was 0.0092 µM.

Question: For `COP(=O)(Nc1cc(-c2ccc(Cl)cc2)sc1C(=O)O)c1ccc(Cl)cc1F` (stereo not given), which IC50 is on record?
Answer: Its IC50 is 0.298 µM.

Question: With `COP(=O)(Nc1cc(-c2ccc(-c3cc4ccccc4o3)cc2)sc1C(=O)O)c1ccc(C)cc1C` (stereo not given) as the compound, how does the IC50 read?
Answer: Its IC50 is 0.0056 µM.

Biological target: RNA-directed RNA polymerase (Hepacivirus hominis, UniProt O39930)
Test: Inhibition of HCV NS5B RNA dependent RNA polymerase

Sequence of RNA-directed RNA polymerase (O39930 whole entry): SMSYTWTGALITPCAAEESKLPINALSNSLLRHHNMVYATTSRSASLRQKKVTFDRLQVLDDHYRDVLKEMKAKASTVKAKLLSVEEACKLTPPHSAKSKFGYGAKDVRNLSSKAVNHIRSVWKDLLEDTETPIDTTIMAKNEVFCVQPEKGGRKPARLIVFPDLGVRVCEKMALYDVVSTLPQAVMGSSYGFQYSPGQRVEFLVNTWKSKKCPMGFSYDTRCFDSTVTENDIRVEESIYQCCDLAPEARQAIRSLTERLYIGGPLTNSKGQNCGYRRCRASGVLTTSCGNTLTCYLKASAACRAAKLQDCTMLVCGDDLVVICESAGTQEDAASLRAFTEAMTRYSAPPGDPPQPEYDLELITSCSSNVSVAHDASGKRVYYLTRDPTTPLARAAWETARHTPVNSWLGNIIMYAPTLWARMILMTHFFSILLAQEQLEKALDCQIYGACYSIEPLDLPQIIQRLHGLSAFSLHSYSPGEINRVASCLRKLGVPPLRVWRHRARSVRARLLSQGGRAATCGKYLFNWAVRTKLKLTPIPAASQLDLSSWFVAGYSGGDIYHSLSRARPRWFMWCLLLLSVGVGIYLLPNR

Question: For `Cc1ccc(S(=O)(=O)Nc2cc(-c3ccccc3)sc2C(=O)O)c(C)c1`, which IC50 is on record?
Answer: Its IC50 is 1 µM.

Question: With `CC(C)N(c1cc(-c2ccccc2)sc1C(=O)O)C(=O)[C@H]1CC[C@H](C)CC1` as the compound, how does the IC50 read?
Answer: Its IC50 is 1.5 µM.
